Measured values as given in US6991902B2, “Nucleobase heterocyclic combinatorialization” (ISIS Pharmaceuticals, Inc., priority 1997, dated 2006).

What was measured:
Conditions in all cases: deblocked single compounds
Staphylococcus aureus = assay: Antimicrobial assay (MIC), Staphylococcus aureus; type: cell-based
Experimental: In this assay, the strain S. aureus ATCC 25923 (American Type Culture Collection) is used in the bioassay. To initiate the exponential phase of bacterial growth prior to the assay, a sample of bacteria is grown overnight at 37° C. in typtocase soy broth (BBL). This bacteria is then used to reinoculate sample wells of 96-well microtiter plates. The assays are carried out in the 96-well microtiter plates in 150 μL volume with approximately 1×10^6 cells per well.
(§1) Bacteria in typtocase soy broth (75 μL) is added to the compound mixtures in solution in 75 μL water/4% DMSO in the individual well of the microtiter plate. Final concentrations of the compound mixtures are 25 μM, 10 μM and 1 μM. Each concentration of the compound mixtures are assayed in triplicate. The plates are incubated at 37° C. and growth monitored over a 24 hour period by measuring the optical density at 595 nm using a BioRad model 3550 UV microplate reader. The percentage of growth relative to a well containing no compound is determined. Ampicillin and tetracycline antibiotic positive controls are concurrently tested in each screening assay.

Entercoccus hirae = assay: Antimicrobial assay (MIC), Entercoccus hirae; type: cell-based
Escherichia coli = assay: Antimicrobial assay (MIC), Escherichia coli; type: cell-based
E. coli imp- = assay: Antimicrobial assay (MIC), E. coli imp-; type: cell-based, Escherichia coli
Experimental: In this assay, the strain E. coli imp- obtained from Spenser Bensen (Sampson., B. A., Misra, R. & Benson, S. A. (1989), Genetics, 122, 491-501, Identification and characterization of a new gene of Escherichia coli K-12 involved in outer membrane permeability) is used. To initiate the exponential phase of bacterial growth prior to the assay, a sample of bacteria is grown overnight at 37° C. in Luria broth. This bacteria is then used to reinoculate sample wells of 96-well microtiter plates. The assays are carried out in the 96-well microtiter plates in 150 μL volume with approximately 1×10^6 cells per well.
as §1, with “Luria” for “typtocase soy”, “water” for “water/4% DMSO”, “Ampicillin and tetracycline antibiotic positive controls are concurrently tested in each screening assay.” left out
Libraries in accordance with the present invention have been tested for antibacterial activity utilizing assays that determine the minimum inhibitory concentration (MIC). […] Activity has been detected in a number of libraries of the present invention.

Klebsiella pneumoniae = assay: Antimicrobial assay (MIC), Klebsiella pneumoniae; type: cell-based
Streptococcus pyogenes = assay: Antimicrobial assay (MIC), Streptococcus pyogenes; type: cell-based

## 6-[(2-Aminobenzothiazole acetyl)piperazinyl]-2-[(m-chlorobenzyl)-piperazinyl]-N9-[(N′-t-Boc-N″-acetyl)piperazinyl]purine [Compound 46]
Staphylococcus aureus
  minimum inhibitory activity, Staphylococcus aureus: 3 to 6 µM
Entercoccus hirae
  minimum inhibitory activity, Entercoccus hirae: 3 to 6 µM
Escherichia coli
  minimum inhibitory activity, Escherichia coli: 50 to 100 µM
E. coli imp-
  minimum inhibitory activity, E. coli. imp-: 3 to 6 µM
Klebsiella pneumoniae
  minimum inhibitory activity, Klebsiella pneumoniae: 3 to 6 µM
Streptococcus pyogenes
  minimum inhibitory activity, Streptococcus pyogenes: 3 to 6 µM

## 6-[(2-aminobenzothiazole acetyl)piperazinyl]-2-[(N-m-triflouromethylbenzyl)piper-azinyl]-N9-[(N′-t-Boc-N″-acetyl)piperazinyl]purine [Compound 50]
Staphylococcus aureus
  minimum inhibitory activity, Staphylococcus aureus: 3 to 6 µM
Entercoccus hirae
  minimum inhibitory activity, Entercoccus hirae: 3 µM
Escherichia coli
  minimum inhibitory activity, Escherichia coli: >100 µM
E. coli imp-
  minimum inhibitory activity, E. coli. imp-: 3 µM
Klebsiella pneumoniae
  minimum inhibitory activity, Klebsiella pneumoniae: 3 to 6 µM
Streptococcus pyogenes
  minimum inhibitory activity, Streptococcus pyogenes: 3 to 6 µM
